Calls of active or inactive are those of the source. No cut-off for these calls is given here. Where only a bound is given, the exact number is not on record here.

As a reminder, the Kd is the constant that tells how readily two partners part at equilibrium. A higher Kd goes with weaker binding. As usually defined, the IC50 is the point on the concentration scale where inhibition reaches its midpoint. Lower therefore signals greater potency.

In the first test the target is T1, Replicase polyprotein 1ab (Severe acute respiratory syndrome coronavirus 2, UniProt P0DTD1). Briefly: Binding affinity to SARS-CoV2 PLpro by biolayer interferometry analysis. For orientation: BLI is a label-free optical method that tracks binding on a fibre tip over time.
Take `Cc1ccc(-c2noc(C(C)c3ccc4c(c3)[nH]c3ccc(Cl)cc34)n2)cc1NCc1ccc(C(=O)O)s1` (centres undefined): the dissociation constant Kd came to 13.6 µM.

In a further test the target is Replicase polyprotein 1ab (Severe acute respiratory syndrome coronavirus 2) (UniProt P0DTD1). In words: Binding affinity to SARS-CoV2 PLpro assessed as stabilization by measuring increase melting temperature by thermal shift assay.
`Cc1ccc(-c2noc(C(c3ccccc3)c3ccccc3)n2)cc1NCc1ccc(C(=O)O)s1`: the outcome was Active. On to `Cc1ccc(-c2noc(C(C)c3cccc(-c4cccs4)c3)n2)cc1NCc1ccc(C(=O)O)s1` (centres undefined), for which the outcome was Active.

The next test deals with T1, Replicase polyprotein 1ab. Briefly: Inhibition of SARS-CoV2 PLpro using Z-RLRGG-AMC as substrate preincubated for 10 mins followed by substrate addition and measured after 20 sec shaking for 30 mins by time-resolved fluorescence assay.
Take `Cc1ccc(NCC(C)(C)C)cc1-c1noc(C(C)c2cccc3ccccc23)n1` (centres undefined): the IC50 is above 200 µM. Turning to `Cc1ccc(NCc2cccc(C(=O)O)c2)cc1-c1noc(C(C)c2cccc3ccccc23)n1` (centres undefined), the IC50 was determined as 11.1 µM.

Consider `CC(c1nc(-c2cc(NCc3ccc(C(=O)O)cc3)ccc2Br)no1)c1cccc2ccccc12` (centres undefined), for which the IC50 is 2.1 µM. On to `Cc1ccc(N)cc1-c1noc(C(C)c2cccc3ccccc23)n1` (centres undefined), for which the half-inhibitory concentration (IC50) is above 200 µM. The molecule `CC(c1noc(-c2ccc(-c3ccc(C(=O)O)s3)cc2)n1)c1cccc2ccccc12` (centres undefined) had a half-inhibitory concentration (IC50) of 2.1 µM.

Regarding `Cc1ccc(-c2noc(C(C)c3ccc(CC(C)C)cc3)n2)cc1NCc1ccc(C(=O)O)s1` (centres undefined), the midpoint of inhibition, the IC50, lay at 3.6 µM. On to `Cc1ccc(NCc2ccc(C(=O)O)s2)cc1-c1noc(C(C)c2cccc3ccccc23)n1` (centres undefined), for which half-maximal inhibition (IC50) was put at 10.4 µM.

With `COC1CCC(Nc2ccc(C)c(-c3noc(C(C)c4cccc5ccccc45)n3)c2)CC1` (centres undefined), the IC50 was determined as 114 µM. Consider `Cc1ccc(-c2noc(C(C)c3ccc(N4Cc5ccccc5C4=O)cc3)n2)cc1NCc1ccc(C(=O)O)s1` (centres undefined), for which half-maximal inhibition (IC50) was put at 3.9 µM. `Cc1ccc(Nc2ccc(C(=O)O)cc2)cc1-c1noc(C(C)c2cccc3ccccc23)n1` (centres undefined) came in with a half-inhibitory concentration (IC50) of 10.7 µM. Same read-out and setting: next, `COc1ccc(-c2noc(C(C)c3cccc4ccccc34)n2)cc1NCc1ccc(C(=O)O)s1` (centres undefined): 1.3 µM; `Cc1ccc(NC2CCC(C#N)CC2)cc1-c1noc(C(C)c2cccc3ccccc23)n1` (centres undefined): above 200 µM. Same read-out and setting: in the case of `Cc1ccc(-c2noc(-c3cccc4ccccc34)n2)cc1NCc1ccc(C(=O)O)s1` it was 11.6 µM; in that of `Cc1ccc(-c2noc(-c3ccccc3)n2)cc1NCc1ccc(C(=O)O)s1`, 59 µM. The molecule `CC(c1nc(-c2ccc(N(C)Cc3ccc(C(=O)O)s3)cc2)no1)c1cccc2ccccc12` (centres undefined) showed an IC50 of 4 µM. Still for that read-out and setting: next, `Cc1ccc(-c2noc(C(c3ccccc3)c3ccccc3)n2)cc1NCc1ccc(C(=O)O)s1`: 9 µM; `Cc1ccc(-c2noc([C@H](C)c3ccc(-c4ccccc4)c(F)c3)n2)cc1NCc1ccc(C(=O)O)s1`: 4 µM; `Cc1ccc(NCc2ccc(S(C)(=O)=O)cc2)cc1-c1noc(C(C)c2cccc3ccccc23)n1` (centres undefined): 59.2 µM. In the case of `Cc1ccc(-c2noc(C(C)c3cccc(-c4cccs4)c3)n2)cc1NCc1ccc(C(=O)O)s1` (centres undefined), the 50% inhibitory concentration (IC50) amounted to 4.1 µM.

Regarding `Cc1ccc(-c2noc(C(C)c3cccc(-c4ccccc4)c3)n2)cc1NCc1ccc(C(=O)O)s1` (centres undefined), half-maximal inhibition (IC50) was put at 4.3 µM. Still for that read-out and setting: in the case of `Cc1ccc(-c2noc(C(C)c3cccc4ccccc34)n2)cc1NCc1ccc(C(=O)O)cc1` (centres undefined) it was 0.2 µM; in that of `Cc1ccc(NCc2ccc(C(=O)O)cc2)cc1-c1noc(C(C)c2cccc3ccccc23)n1` (centres undefined), 11.2 µM.

Molecule `Cc1ccc(-c2noc(C(C)c3cccc(C(O)c4ccccc4)c3)n2)cc1NCc1ccc(C(=O)O)s1` (centres undefined) registered an IC50 of 11.1 µM. Same read-out and setting: next, `CC(c1nc(-c2ccc(-c3ccc(C#N)s3)cc2)no1)c1cccc2ccccc12` (centres undefined): 0.6 µM; `COc1ccc2cc([C@@H](C)c3nc(-c4ccc(C)c(NCc5ccc(C(=O)O)s5)c4)no3)ccc2c1`: 10.5 µM. As to `Cc1ccc(-c2noc([C@@H](C)c3ccc(-c4ccccc4)c(F)c3)n2)cc1NCc1ccc(C(=O)O)s1`, the IC50 was determined as 3.4 µM. Still for that read-out and setting: in the case of `CONC(=O)c1ccc(-c2ccc(-c3noc(C(C)c4cccc5ccccc45)n3)cc2)cc1` (centres undefined) it was 0.9 µM; in that of `Cc1ccc(-c2noc(-c3ccc(-c4ccccc4)cc3)n2)cc1NCc1ccc(C(=O)O)s1`, 25.5 µM; in that of `CC(c1noc(-c2ccc(-c3ccc(C#N)s3)cc2)n1)c1cccc2ccccc12` (centres undefined), 31.4 µM. For `CC(c1ncc(-c2ccc(-c3ccc(C#N)s3)cc2)o1)c1cccc2ccccc12` (centres undefined), the 50% inhibitory concentration (IC50) stood at 20.8 µM. The same measure, in the same setting: next, `CC(c1ncc(-c2ccc(-c3ccc(C(=O)O)s3)cc2)o1)c1cccc2ccccc12` (centres undefined): 7.7 µM. The same measure, in the same setting: next, `CC(c1nc(-c2cccc(NCc3ccc(C(=O)O)cc3)c2)no1)c1cccc2ccccc12` (centres undefined): 7.5 µM; `Cc1ccc(NC2CCCC(C(=O)O)C2)cc1-c1noc(C(C)c2cccc3ccccc23)n1` (centres undefined): 35.1 µM. For the molecule `Cc1ccc(-c2noc(C(C)c3ccc4c(c3)[nH]c3ccc(Cl)cc34)n2)cc1NCc1ccc(C(=O)O)s1` (centres undefined), half-maximal inhibition (IC50) required 1.9 µM. In turn, `COc1ccc2cc([C@H](C)c3nc(-c4ccc(C)c(NCc5ccc(C(=O)O)s5)c4)no3)ccc2c1` came in with a concentration for half-maximal inhibition (IC50) of 5.8 µM. The same measure, in the same setting: next, `Cc1ccc(NC2CCC(C(=O)O)CC2)cc1-c1noc(C(C)c2cccc3ccccc23)n1` (centres undefined): 22.7 µM; `Cc1ccc(NC2CCCCC2)cc1-c1noc(C(C)c2cccc3ccccc23)n1` (centres undefined): 101 µM; `CC(c1nc(-c2cccc(NCc3ccc(C(=O)O)s3)c2)no1)c1cccc2ccccc12` (centres undefined): 7.6 µM.

Consider `Cc1ccc(-c2noc(C(C)(C)c3ccc(-c4ccccc4)cc3)n2)cc1NCc1ccc(C(=O)O)s1`, for which 35.4 µM corresponded to half-maximal inhibition (IC50). `CC(c1nc(-c2ccc(-c3ccc(C(=O)O)cc3)cc2)no1)c1cccc2ccccc12` (centres undefined) showed an IC50 of 11.7 µM. On to `Cc1ccc(-c2noc(C(O)c3ccccc3)n2)cc1NCc1ccc(C(=O)O)s1` (centres undefined), for which the IC50 amounted to 435 µM. Take `Cc1ccc(NCc2ccc(C(=O)O)o2)cc1-c1noc(C(C)c2cccc3ccccc23)n1` (centres undefined): half-maximal inhibition (IC50) required 14.4 µM. `Cc1ccc(NCc2ccc(C#N)cc2)cc1-c1noc(C(C)c2cccc3ccccc23)n1` (centres undefined) registered an IC50 above 200 µM. In the case of `COC(=O)c1ccc(Nc2ccc(C)c(-c3noc(C(C)c4cccc5ccccc45)n3)c2)cc1` (centres undefined), the 50% inhibitory concentration (IC50) is 70.9 µM.

The molecule `CC(c1nc(-c2ccc(Nc3ccc(C(=O)O)cc3)cc2)no1)c1cccc2ccccc12` (centres undefined) yielded an IC50 of 4.2 µM.

For the molecule `Cc1ccc(-c2noc(Cc3cccc(-c4cccs4)c3)n2)cc1NCc1ccc(C(=O)O)s1`, the IC50 is 6.8 µM.

In turn, `CC(c1nc(-c2cccc(NCc3ccc(C(=O)O)o3)c2)no1)c1cccc2ccccc12` (centres undefined) registered a concentration for half-maximal inhibition (IC50) of 96.5 µM. Same read-out and setting: in the case of `COC(=O)c1ccc(CNc2ccc(C)c(-c3noc(C(C)c4cccc5ccccc45)n3)c2)cc1` (centres undefined) it was above 200 µM. The molecule `CC(c1nc(-c2ccc(NCc3ccc(C(=O)O)cc3)cc2)no1)c1cccc2ccccc12` (centres undefined) gave an IC50 of 50.2 µM.

`COc1ccc2cc(C(C)c3nc(-c4ccc(C)c(NCc5ccc(C(=O)O)s5)c4)no3)ccc2c1` (racemic) showed a half-maximal inhibitory concentration (IC50) of 5.9 µM. `Cc1ccc(NCc2ccc(O)cc2)cc1-c1noc(C(C)c2cccc3ccccc23)n1` (centres undefined) had an IC50 of 176 µM.

These data come from ChEMBL document CHEMBL5500399, “Design, Synthesis, and Biological Evaluation of 1,2,4-Oxadiazole Derivatives Containing an Aryl Carboxylic Acid Moiety as Potent Sarbecovirus Papain-like Protease Inhibitors” (J Med Chem, 2024).
